Where two headings read alike, the source gives them in different places. Values belong to the compound of their own block, whether it stands above or below them.
What was measured:
ER-α [1] = molecular target: T1, ER-α (Homo sapiens, UniProt P03372); experiment: biochemical
T1 sequence (P03372 1-595): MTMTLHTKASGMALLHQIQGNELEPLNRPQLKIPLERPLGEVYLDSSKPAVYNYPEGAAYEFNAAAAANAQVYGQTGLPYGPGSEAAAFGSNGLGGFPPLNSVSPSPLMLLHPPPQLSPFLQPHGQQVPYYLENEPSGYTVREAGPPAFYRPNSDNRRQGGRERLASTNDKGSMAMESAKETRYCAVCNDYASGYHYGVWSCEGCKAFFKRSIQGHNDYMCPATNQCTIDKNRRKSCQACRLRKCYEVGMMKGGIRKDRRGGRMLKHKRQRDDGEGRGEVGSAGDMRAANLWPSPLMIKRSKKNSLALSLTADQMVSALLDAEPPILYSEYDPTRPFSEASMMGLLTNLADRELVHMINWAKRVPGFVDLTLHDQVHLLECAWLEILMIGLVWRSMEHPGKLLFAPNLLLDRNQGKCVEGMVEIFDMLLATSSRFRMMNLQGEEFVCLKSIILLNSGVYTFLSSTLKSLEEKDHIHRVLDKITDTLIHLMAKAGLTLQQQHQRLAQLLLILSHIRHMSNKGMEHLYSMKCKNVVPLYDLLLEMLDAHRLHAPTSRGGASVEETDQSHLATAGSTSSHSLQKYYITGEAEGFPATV
Procedure: (§1) A 2 μL ligand solution at 2 times the final concentration was dispensed with a micropipette into a 384 well black wall Greiner plate. Then, 2 μL of the protein dye solution was dispensed on top of the ligand solution in the 384 well plate. The plates were spun to ensure nixing of the protein-dye and ligand solutions followed by layering of 1 μL of silicone oil to prevent evaporation during heating of the samples. […] The values for the co-regulators represent a change in Tm stabilization from the receptor-ligand ΔTm values.

PPAR-γ [2] = molecular target: T2, PPAR-γ (Homo sapiens, UniProt P37231); settings: reported in literature; partial = partial agonist; cited from earlier work
T2 sequence (P37231 1-505): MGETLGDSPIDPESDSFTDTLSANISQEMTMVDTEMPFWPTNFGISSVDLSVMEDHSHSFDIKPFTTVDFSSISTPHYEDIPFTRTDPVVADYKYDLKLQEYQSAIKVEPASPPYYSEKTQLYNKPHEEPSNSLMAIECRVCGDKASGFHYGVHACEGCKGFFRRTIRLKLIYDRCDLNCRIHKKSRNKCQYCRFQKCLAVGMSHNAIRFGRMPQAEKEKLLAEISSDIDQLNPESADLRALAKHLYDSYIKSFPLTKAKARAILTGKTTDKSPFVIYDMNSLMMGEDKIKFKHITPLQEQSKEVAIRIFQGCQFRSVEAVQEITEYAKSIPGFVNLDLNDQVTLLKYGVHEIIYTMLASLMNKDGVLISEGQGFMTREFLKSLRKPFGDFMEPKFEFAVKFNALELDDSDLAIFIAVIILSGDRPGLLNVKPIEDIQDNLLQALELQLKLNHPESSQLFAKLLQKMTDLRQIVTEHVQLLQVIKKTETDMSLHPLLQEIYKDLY

PPAR-γ [3] = molecular target: T2, PPAR-γ; experiment: Microplate thermal shift of PPAR-γ with ligands, co-activator peptide and co-repressor peptide NCoR-1, Example 5; assay type: binding; settings: for Observed stabilization of PPAR-γ, SRC1-NR2 / Observed stabilization of PPAR-γ, NCoR-1 / Observed stabilization of PPAR-γ, Ligand: PPAR-γ 8 μM, ligand 40 μM; for Observed stabilization of PPAR-γ, SRC1-NR2: co-activator peptide 200 μM; for Observed stabilization of PPAR-γ, NCoR-1: co-repressor peptide NCoR-1 200 μM; for Observed stabilization of PPAR-γ, Ligand: no peptide; for Thermofluor Prediction (PPAR-γ): based on relative affinities for co-activator and co-repressor peptides, partial = partial agonist
Procedure: (§2) The experiments were performed in 25 mM HEPES pH 7.9, 200 mM NaCl, 5 mm DTT and in the presence of 50 μM dapoxyl-2-amino-ethyl sulfonamide. A 2 μL ligand solution at 2 times the final concentration was dispensed with a micropipette into a 384 well black wall Greiner plate. Then 2 μL of the protein dye solution was dispensed on top of the ligand solution in the 384 well plate. The plates were spun to ensure mixing of the protein-dye and ligand solutions followed by layering of 1 μL of silicone oil to prevent evaporation during heating of the samples. Data were collected on a Thermofluor apparatus and data were analyzed using software that employs a non-linear Marquardt algorithm. Reported results are the average of four experiments.

ER-β [4] = molecular target: T3, ER-β (Homo sapiens, UniProt Q92731); experiment: biochemical
T3 sequence (Q92731 whole entry, species assumed): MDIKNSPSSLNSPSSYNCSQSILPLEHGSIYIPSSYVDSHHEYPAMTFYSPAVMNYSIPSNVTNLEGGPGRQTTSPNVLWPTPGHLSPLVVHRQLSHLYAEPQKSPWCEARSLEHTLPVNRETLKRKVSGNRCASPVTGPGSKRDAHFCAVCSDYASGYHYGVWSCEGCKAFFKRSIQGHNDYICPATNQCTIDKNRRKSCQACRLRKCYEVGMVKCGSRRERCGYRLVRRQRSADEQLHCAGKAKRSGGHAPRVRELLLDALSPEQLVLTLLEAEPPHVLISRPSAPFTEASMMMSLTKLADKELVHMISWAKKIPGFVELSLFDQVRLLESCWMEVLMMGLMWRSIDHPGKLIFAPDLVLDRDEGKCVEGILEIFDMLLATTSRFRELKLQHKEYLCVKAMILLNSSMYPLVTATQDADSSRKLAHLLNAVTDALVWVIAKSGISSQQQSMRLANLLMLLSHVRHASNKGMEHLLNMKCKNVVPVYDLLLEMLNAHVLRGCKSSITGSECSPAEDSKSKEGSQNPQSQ

ER-α [5] = molecular target: T1, ER-α; experiment: Microplate thermal shift of ER-α against a panel of steroid ligands, Example 2; assay type: binding; settings: ER-α 8 μM, ligand 20 μM, 25 mM phosphate pH 8.0; average of four experiments
Procedure: The concentration of ER-α in all of the experiments was 8 μM and the ligand concentration was 20 μM.
A 2 μL ligand solution at 2 times the final concentration was dispensed with a micropipette into a 384 well black wall Greiner plate. Then, 2 μL of the protein dye solution was dispensed on top of the ligand solution in the 384 well plate. The plates were spun to ensure mixing of the protein-dye and ligand solutions followed by layering of 1 μL of silicone oil to prevent evaporation during heating of the samples.

ER-α [6] = molecular target: T1, ER-α; experiment: biochemical; remark: listed apart in the source
Procedure: Table 4, shown below, is a summary of the data obtained for ER-α and ER-β in the presence of the coactivator proteins SRC-1 SRC-2 and SRC-3 and in the presence of seven ligands. The concentration of ER-α in all experiments was 8 μM, the ligand concentration was 40 μM, SRC-1 and SRC-3 were at 20 μM.
as §2, with “A” for “The experiments were performed in 25 mM HEPES pH 7.9, 200 mM NaCl, 5 mm DTT and in the presence of 50 μM dapoxyl-2-amino-ethyl sulfonamide. A”, “experiments. The values for the co-regulators represent a change in Tm stabilization from the receptor-ligand ΔTm values.” for “experiments.”
FIG. 3 illustrates binding constants, Ka, for co-activator proteins SRC-1, SRC-2 and SRC-3 in the presence of ER-α ligands. FIG. 4 illustrates binding constants, Ka, for co-activator proteins SRC-1, […] in the presence of ER-β ligands Binding constants were calculated from the observed induced ligand and co-regulator stabilization of the nuclear receptor.

ER-β [7] = molecular target: T3, ER-β; settings: ligand 40 μM; for Change in Tm stabilization from receptor-ligand ΔTm, SRC1: SRC-1 20 μM; for Observed ΔTm stabilization, Ligand: no co-activator
ER-β [8] = molecular target: T3, ER-β; experiment: Microplate thermal shift (Thermofluor) of ER-β with ligands and co-regulators, Example 1; assay type: binding; set-up: Observed ΔTm stabilization, ligand alone / Change in Tm stabilization from receptor-ligand ΔTm, SRC-3 / Change in Tm stabilization from receptor-ligand ΔTm, NcoR1-NR1: unit not given here; settings: ER-β 8 μM, ligand 20 μM
Procedure: as §1

[9] = read-out: Change in Tm stabilization from receptor-ligand ΔTm, SRC1
[10] = read-out: Change in Tm stabilization from receptor-ligand ΔTm, SRC3

Compound: 4-hydroxytamoxifen [4-OH-tamoxifen]
Classification as agonist or antagonist for ER-α (ER-α [1]): antagonist

Compound: CC(C)(c1ccc(OCC2CO2)cc1)c1ccc(OCC2CO2)cc1 (stereo not drawn) [BADGE]
Literature profile of ligand (PPAR-γ [2]): Antagonist γ
Observed stabilization of PPAR-γ, SRC1-NR2 (PPAR-γ [3]): 1.1
Observed stabilization of PPAR-γ, NCoR-1 (PPAR-γ [3]): 5.5
Observed stabilization of PPAR-γ, Ligand (PPAR-γ [3]): 1.1
Thermofluor Prediction (PPAR-γ) (PPAR-γ [3]): Antagonist

Compound: C[C@]12CC[C@@H]3c4ccc(O)cc4CC[C@H]3[C@@H]1CC[C@@H]2O [Estradiol]
ΔTm at 20 µM (ER-β [4]; [9]): 0.5 °C

Compound: C[C@]12CCC(=O)C=C1CC[C@@H]1[C@@H]2C(=O)C[C@@]2(C)[C@H]1CC[C@]2(O)C(=O)CO [cortisone]
ΔTm (ER-α [5]): 0.01 °C

Compound: COc1cc2c(cc1O)CC[C@@H]1[C@@H]2CC[C@]2(C)[C@@H](O)CC[C@@H]12 [2-methoxy-E2, 2-methoxy-estradiol]
Change in Tm stabilization from receptor-ligand ΔTm, SRC1 (ER-α [6]; ER-α 8 μM, ligand 40 μM, SRC-1 20 μM): 2.1
Observed ΔTm stabilization, Ligand (ER-α [6]; ER-α 8 μM, ligand 40 μM, no co-activator): 3.5
Change in Tm stabilization from receptor-ligand ΔTm, NcoR1-NR1 (ER-α [1]; ER-α 8 μM, ligand 20 μM, co-repressor peptide NCoR-1 100 μM): −0.7
Observed ΔTm stabilization, ligand alone (ER-α [1]; ER-α 8 μM, ligand 20 μM, no co-regulator, average of four experiments): 3.5
Classification as agonist or antagonist for ER-α (ER-α [1]; if screened against a panel of co-regulators as in Example 1): agonists
Change in Tm stabilization from receptor-ligand ΔTm, SRC1 (ER-β [7]): 1.0
Change in Tm stabilization from receptor-ligand ΔTm, SRC3 (ER-β [7]; SRC-3 20 μM): 2.5
Change in Tm stabilization from receptor-ligand ΔTm, SRC2 (ER-β [7]; co-activator protein SRC-2): 2.4
Observed ΔTm stabilization, Ligand (ER-β [7]): 2.9
Change in Tm stabilization from receptor-ligand ΔTm, SRC1-NR2 (ER-β [8]; co-activator peptide SRC1-NR2 100 μM): 4.4
Change in Tm stabilization from receptor-ligand ΔTm, SRC3-NR2 (ER-β [8]; co-activator peptide SRC3-NR2 100 μM): 4.4
Change in Tm stabilization from receptor-ligand ΔTm, SRC-3 (ER-β [8]; co-activator protein SRC-3 11 μM): 2.5
Change in Tm stabilization from receptor-ligand ΔTm, NcoR1-NR1 (ER-β [8]; co-repressor peptide NCoR-1 100 μM): −0.7
Observed ΔTm stabilization, ligand alone (ER-β [8]; no co-regulator, average of four experiments): 2.9

Compound: 17-α-ethylene-estradiol [17-α-ethylene-E2]
Change in Tm stabilization from receptor-ligand ΔTm, SRC1 (ER-β [7]): 1.1

Continued, in another order:

Observed stabilization of PPAR-γ, SRC1-NR2 (PPAR-γ [3]): 1.2
Observed stabilization of PPAR-γ, NCoR-1 (PPAR-γ [3]): 3.5
Observed stabilization of PPAR-γ, Ligand (PPAR-γ [3]): 5.9
Thermofluor Prediction (PPAR-γ) (PPAR-γ [3]): Antagonist
Compound: O=C(Nc1ccccc1)c1cc([N+](=O)[O-])ccc1Cl [GW9662]
Literature profile of ligand (PPAR-γ [2]): Antagonist γ

ΔTm at 20 µM (ER-α [6]; [9]): 0.4 °C
ΔTm at 20 µM (ER-α [6]; [10]): 0.5 °C
ΔTm at 20 µM (ER-β [4]; [9]): 0.5 °C
ΔTm at 20 µM (ER-β [4]; [10]): 0.9 °C
Co-activator recruitment / additional stabilization, conclusion in words (ER-α [1]; from Table 1, both receptors ER-α and ER-β): no ability to recruit co-activators
ΔTm at 11 µM (ER-α [1]; read-out: Change in Tm stabilization from receptor-ligand ΔTm, SRC-3): 0.5 °C
Observed ΔTm stabilization, Ligand (ER-β [7]): 16.7
ΔTm at 11 µM (ER-β [8]; co-activator protein SRC-3 11 μM, read-out: Change in Tm stabilization from receptor-ligand ΔTm, SRC-3): 0.9 °C
Compound: C[C@]12CC[C@@H]3c4ccc(O)cc4C[C@@H](CCCCCCCCC[S+]([O-])CCCC(F)(F)C(F)(F)F)[C@H]3[C@@H]1CC[C@@H]2O (stereo partly drawn) [ICI-182780]
Co-activator recruitment, conclusion in words (ER-α [6]; from Table 4 and FIGS. 3 and 4, SRC-1, SRC-2, SRC-3, ER-α (b172 also ER-β)): very little ability to recruit co-activator

Observed stabilization of PPAR-γ, SRC1-NR2 (PPAR-γ [3]): 1.5
Observed stabilization of PPAR-γ, NCoR-1 (PPAR-γ [3]): 5.0
Observed stabilization of PPAR-γ, Ligand (PPAR-γ [3]): 1.0
Thermofluor Prediction (PPAR-γ) (PPAR-γ [3]): Antagonist
Compound: Cc1cccc(Nc2cc(Cl)nc(SCC(=O)O)n2)c1C [WY14643]
Literature profile of ligand (PPAR-γ [2]): Partial α, antagonist γ

Reference: patent publication US20060110732A1, “Method for the identification of ligands” (priority 2002, published 2006)
